Experimental data reported in patent US7589087B2 (Janssen Pharmaceutica, N.V., priority 2006, dated 2009).

target: T1, human histamine H4 receptor (Homo sapiens, UniProt Q9H3N8); test: Binding Assay on Recombinant Human Histamine H4 Receptor (3H-histamine competition, membranes of transfected SK-N-MC or COS7 cells); note: ligand 5 nM
T1 construct: expressed in transfected cells; host or cells: SK-N-MC cells or COS7 cells, transiently transfected; membranes prepared
Procedure: SK-N-MC cells or COS7 cells were transiently transfected with pH4R and grown in 150 cm^2 tissue culture dishes. Cells were washed with saline solution, scraped with a cell scraper and collected by centrifugation (1000 rpm, 5 min). Cell membranes were prepared by homogenization of the cell pellet in 20 mM Tris-HCl with a polytron tissue homogenizer for 10 sec at high speed. Homogenate was centrifuged at 1000 rpm for 5 min at 4° C. The supernatant was then collected and centrifuged at 20,000×g for 25 min at 4° C. The final pellet was resuspended in 50 mM Tris-HCl. […] Incubation occurred at room temperature for 45 min. Membranes were harvested by rapid filtration over Whatman GF/C filters and washed 4 times with ice-cold 50 mM Tris HCl. Filters were then dried, mixed with scintillant and counted for radioactivity.

Ki [µM]	SMILES
0.001	Cc1cccc2[nH]c(-c3ccnc(NCCCCC4CCN(C)CC4)c3)nc12 [Example 15, [4-(4-Methyl-1H-benzoimidazol-2-yl)-pyridin-2-yl]-[4-(1-methyl-piperidin-4-yl)-butyl]-amine]
0.022	Cc1cc(-c2nc3c(C)c(F)ccc3[nH]2)cnc1NCCCC1CCN(C)CC1 [Example 11, [5-(5-Fluoro-4-methyl-1H-benzoimidazol-2-yl)-3-methyl-pyridin-2-yl]-[3-(1-methyl-piperidin-4-yl)-propyl]-amine]
0.089	CN1CCC(CCCNc2ccc(-c3nc4c(F)c(F)ccc4[nH]3)cn2)CC1 [Example 29, [5-(4,5-Difluoro-1H-benzoimidazol-2-yl)-pyridin-2-yl]-[3-(1-methyl-piperidin-4-yl)-propyl]-amine]
